One series relates to A549. The experiment in a line: Cytotoxicity against human A549 cells after 72 hrs by alamar blue assay. In kind it is functional, cell-based. To be noted: A549, 72 h.
A further series deals with Albumin (Bos taurus, UniProt P02769). Briefly: Induction of cleavage of bovine serum albumin at 500 uM after 16 hrs using Coomassie blue by SDS-PAGE. To be noted: cattle.
Another series relates to Nucleic Acid. The experiment in a line: Induction of DNA cleavage of supercoiled phiX174 plasmid DNA assessed as relaxed DNA at 100 uM after 16 hrs by gel electrophoresis. It is filed as nucleic-acid assay. To be noted: Enterobacteria phage phiX174.
Series [1] in a line: Thermal stability of the compound assessed as half life at 110 degC. It is filed as physicochemical.

Structures are written as SMILES. The source made the active and inactive calls. A value given as a limit tells only on which side of the number the result lay.

Sequence of Albumin (P02769 whole entry): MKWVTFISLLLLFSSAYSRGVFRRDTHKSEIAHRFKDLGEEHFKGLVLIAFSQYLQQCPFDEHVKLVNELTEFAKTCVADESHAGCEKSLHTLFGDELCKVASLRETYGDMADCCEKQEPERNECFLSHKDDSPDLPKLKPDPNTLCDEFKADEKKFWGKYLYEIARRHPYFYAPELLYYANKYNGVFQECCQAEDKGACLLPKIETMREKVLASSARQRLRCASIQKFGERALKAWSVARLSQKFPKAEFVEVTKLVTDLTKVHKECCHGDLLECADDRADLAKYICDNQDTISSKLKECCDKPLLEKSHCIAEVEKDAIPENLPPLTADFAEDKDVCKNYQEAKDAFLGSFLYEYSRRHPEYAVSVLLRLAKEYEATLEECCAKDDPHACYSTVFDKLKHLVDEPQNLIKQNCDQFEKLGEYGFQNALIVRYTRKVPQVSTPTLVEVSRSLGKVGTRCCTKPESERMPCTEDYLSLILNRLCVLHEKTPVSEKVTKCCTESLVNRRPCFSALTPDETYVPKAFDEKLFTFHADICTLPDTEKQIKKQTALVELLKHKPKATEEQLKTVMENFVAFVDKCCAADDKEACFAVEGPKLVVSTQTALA

For the molecule `C#Cn1cc(-c2ccc(F)cc2)nc1C#CCCO`, it took 2.6 µM to reach half-maximal inhibition in the series with A549 (IC50).
Turning to `C#Cn1ccnc1C#Cc1cc(C(F)(F)F)cc(C(F)(F)F)c1`, the midpoint of inhibition in the series on A549, the IC50, lay at 2.5 µM.
As for `C#Cc1nc(-c2ccc(F)cc2)cn1C#C`, the Activity result at Albumin is on record as “Not Active”. The outcome in the series with Nucleic Acid was inactive. Moreover, the IC50 – broadly, the concentration that gives 50% inhibition – in the series with A549 was determined as 2.6 µM.
Molecule `C#Cc1nc2ccccc2n1C#C` yielded an IC50 with A549 of 2 µM.
In the case of `C#Cn1ccnc1C#Cc1ccc(C(C)=O)cc1`, it took 0.5 µM to reach half-maximal inhibition in the series with A549 (IC50).
For the molecule `C#Cn1ccnc1C#Cc1ccccc1`, the IC50 with A549 was 6 µM.
As to `C#Cn1cnc(-c2ccccc2)c1`, 1.1 µM corresponded to half-maximal inhibition in the series on A549 (IC50).
`COc1ccc(C#Cc2nccn2C)cc1` displayed an IC50 in the series on A549 above 15 µM.
Take `C#Cn1ccnc1C#Cc1ccc(OC)cc1`: at Albumin, the Activity result is reported as “Not Active”. The outcome in the series with Nucleic Acid was inactive. For the same molecule, in series [1], the half-life (as a rule, the time needed for the level to fall by half in the phase considered) was 17 h. In the series on A549, this molecule registered an IC50 of 0.5 µM.
The molecule `C(#Cn1ccnc1CCc1ccccc1)c1ccccc1` returned an IC50 with A549 above 15 µM.
For `C#Cn1c(C#Cc2ccc(OC)cc2)nc2ccccc21`, in the series with A549, half-maximal inhibition (IC50) required 2.9 µM.
For `C#Cc1nc(-c2ccccc2)cn1C#C`, in the series with A549, the IC50 was 2.5 µM.
As to `C#Cc1nccn1C#Cc1ccccc1`, the IC50 in the series with A549 was found to be 5 µM.
`C(#Cn1ccnc1)c1ccccc1` had an IC50 with A549 of 9.2 µM.
Take `COc1ccc(C#Cc2nccn2/C=C\Sc2ccccc2)cc1`: it took 10.1 µM to reach half-maximal inhibition in the series with A549 (IC50).
In the case of `C#Cn1ccnc1C#Cc1ccc(C(C)(C)C)cc1`, in series [1], the half-life was 16 h. Also, in the series with A549, half-maximal inhibition (IC50) was put at 2.5 µM.
Turning to `C#Cn1cc(-c2ccccc2)nc1C#Cc1ccc(OC)cc1`, the midpoint of inhibition with A549, the IC50, lay at 2 µM.
On the same count and under the same terms, then `OCC#Cc1nccn1C#CCO`, with 1.9 µM.
With `C#Cn1ccnc1C#Cc1ccc([N+](=O)[O-])cc1`, the Activity entry on Albumin was “Not Active”. Also, the outcome with Nucleic Acid was inactive. The half-life in series [1] is 32 h. Moreover, the IC50 in the series on A549 is 0.12 µM.
For the molecule `C#Cn1ccnc1C#Cc1ccc(C(F)(F)F)cc1`, it took 6 µM to reach half-maximal inhibition in the series on A549 (IC50).
For `C#Cn1ccnc1C#CCOC`, the IC50 in the series on A549 turned out to be 1 µM.

(Values after ChEMBL document CHEMBL1806423, “Cytotoxic 1,2-dialkynylimidazole-based aza-enediynes: aza-Bergman rearrangement rates do not predict cytotoxicity” (J Med Chem, 2011).)
